# Where two headings read alike, the source gives them in different places.
# Assays:
# [1] = target: T1, 5HT1A-serotoninergic receptor (Homo sapiens, UniProt P08908); details: background statement; cited from earlier work
# T1 sequence (P08908 1-422): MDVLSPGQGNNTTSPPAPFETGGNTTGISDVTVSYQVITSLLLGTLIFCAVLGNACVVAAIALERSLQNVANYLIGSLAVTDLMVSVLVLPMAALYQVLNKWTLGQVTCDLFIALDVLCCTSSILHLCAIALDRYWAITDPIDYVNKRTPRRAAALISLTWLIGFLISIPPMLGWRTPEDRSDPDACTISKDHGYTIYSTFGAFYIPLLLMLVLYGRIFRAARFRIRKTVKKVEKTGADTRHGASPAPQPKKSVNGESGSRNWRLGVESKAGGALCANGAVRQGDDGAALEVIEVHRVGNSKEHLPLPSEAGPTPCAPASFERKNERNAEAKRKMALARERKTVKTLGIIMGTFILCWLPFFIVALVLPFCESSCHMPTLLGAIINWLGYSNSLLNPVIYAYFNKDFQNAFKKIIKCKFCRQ
# α1-adrenergic receptor = details: background statement; cited from earlier work
# [2] = tested on: prostatic urethral pressure increase induced by noradrenaline; details: anaesthetised dogs, i.v.; data from Leonardi et al. 1997; cited from earlier work
# diastolic blood pressure [3] = details: anaesthetised dogs, i.v.; data from Leonardi et al. 1997; cited from earlier work
# [4] = target: T1, 5HT1A-serotoninergic receptor; experiment: Radioligand binding, cloned 5-HT1A-serotoninergic receptor in HeLa membranes ([3H]8-OH-DPAT); design: expressed in transfected cells; host or cells: HeLa; details: cloned human 5-HT1A receptor in HeLa membranes, mean Ki, read-out: Affinity for 5-HT1A receptor, cloned receptors (Ki)
# Procedure: HeLa cells were grown as monolayers in Dulbecco's Modified Eagle medium (DMEM) supplemented with 10% foetal calf serum and gentamicin (100 μg/mL), 5% CO2, at 37° C. The cells were detached from the growth flask at 95% confluence by a cell scraper and were lysed in ice-cold Tris-5-mM and EDTA-5-mM buffer (pH 7.4). The homogenates were centrifuged at 40000×g×20 minutes and the membranes were resuspended in a small volume of ice-cold buffer containing Tris 5 mM and EDTA 5 mM (pH 7.4), and immediately frozen and stored at −70° C. until use.
# Non-specific binding was determined in the presence of 10 μM 5-HT. The incubation was stopped by addition of ice-cold Tris buffer and rapid filtration through 0.2% polyethyleneimine-pretreated Schleicher & Schuell filters.
# (§1) Data were expressed as mean Ki.
# [5] = target: T2, α1b-adrenoceptor (recombinant) (Homo sapiens, UniProt P35368); experiment: Radioligand binding, cloned α1b-adrenoceptor ([3H]prazosin); details: read-out: Affinity for recombinant α1b-adrenoceptor, cloned receptors (Ki)
# T2 construct: expressed in transfected cells
# T2 sequence (P35368 1-520): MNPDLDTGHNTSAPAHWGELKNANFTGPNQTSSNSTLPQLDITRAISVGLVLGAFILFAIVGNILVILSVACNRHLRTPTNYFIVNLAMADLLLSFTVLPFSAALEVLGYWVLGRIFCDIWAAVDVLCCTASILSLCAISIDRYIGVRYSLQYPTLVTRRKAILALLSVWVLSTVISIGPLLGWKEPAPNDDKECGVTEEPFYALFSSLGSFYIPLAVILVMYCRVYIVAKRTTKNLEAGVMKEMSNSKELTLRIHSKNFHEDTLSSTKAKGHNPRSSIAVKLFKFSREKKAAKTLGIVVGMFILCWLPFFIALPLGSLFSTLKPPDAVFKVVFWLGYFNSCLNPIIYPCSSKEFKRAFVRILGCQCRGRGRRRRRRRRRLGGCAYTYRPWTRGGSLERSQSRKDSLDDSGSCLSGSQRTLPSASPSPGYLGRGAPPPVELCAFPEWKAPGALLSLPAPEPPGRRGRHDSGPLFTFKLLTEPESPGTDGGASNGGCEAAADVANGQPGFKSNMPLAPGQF
# Procedure: (§2) Determination of affinity for cloned subtypes of α1-adrenoceptor subtypes was performed in membranes from cells transfected by electroporation with DNA expressing the genes encoding each α1-adrenoceptor subtype.
# (§3) Non-specific binding was determined in the presence of 10 μM phentolamine.
# (§4) Incubation was stopped by addition of ice-cold Tris buffer and rapid filtration through 0.2% polyethyleneimine-pretreated Schleicher & Schuell GF52 filters.
# as §1
# diastolic blood pressure [6] = experiment: Lowering of diastolic blood pressure in anaesthetised dogs after i.v. administration; format: in vivo, dog
# Procedure: (§5) The experiments were performed according to the method of Imagawa J. et al., J. Pharmacol. Methods 22: 103-111, 1989, with substantial modifications, as follows: adult male beagle dogs, weighing 8-10 kg, were anaesthetised with pentobarbital sodium (30 mg/kg i.v. and 2 mg/kg/h i.v.), intubated and spontaneously ventilated with room air. In order to monitor systemic blood pressure (BP), a polyethylene (PE) catheter was introduced into the aortic arch through the left femoral artery. A collateral of the left femoral vein was cannulated for infusion of anaesthetic, and the right femoral vein was cannulated for administration of compounds. For intra-arterial (i.a.) injection of noradrenaline (NA), a PE catheter was introduced into the lower portion of the abdominal aorta via the right external iliac artery. Through such procedure, NA was selectively distributed to the lower urinary tract. A paramedian vertical suprapubic incision extending from the base of the pelvis to the mid-abdominal region was made and the bladder and prostate were exposed. The bladder was manually emptied with a syringe. Prostatic urethral pressure was monitored with a Mikro-tip catheter (5F) introduced into the bladder via the external urethral meatus, and withdrawn until the pressure transducer was positioned in the prostatic region of the urethra. A ligature was secured between the neck of the bladder and urethra to isolate the response of the latter and to avoid any interaction with the bladder. Another ligature was put around the Mikro-tip catheter at the external meatus, to secure the catheter itself. After a stabilising period following the surgical procedure (30 minutes), in which arterial and prostatic urethral pressure were continuously monitored as basal values, i.a. administration of NA was made at intervals of 20 minutes. The doses of NA chosen were such to produce an increase of at least 100% in urethral pressure. The test compounds were administered i.v. in a cumulative manner with intervals of 15-20 minutes between administrations. I.a. injections of NA were repeated 5 minutes after every dosing of test compound with intervals of about 10 minutes between stimulations. In order to compare the effects of the administered compound, dose/response curves (log dose transformation) were constructed by computing, at the peak effect, the percent decrease in diastolic blood pressure and the percent inhibition of the increase in urethral pressure induced by NA.
# [7] = tested on: prostatic urethral pressure increase induced by noradrenaline; experiment: Inhibition of urethral contractions induced by noradrenaline in anaesthetised dogs after i.v. administration; format: in vivo, dog; details: for UC ID50: active dose inhibiting by 50% the urethral contractions induced by noradrenaline: i.v. administration; for DBP/UC ratio between the active doses: i.v., DBP ED25 / UC ID50
# Procedure: as §5
# [8] = target: T3, α1d-adrenoceptor (recombinant) (Homo sapiens, UniProt P25100); experiment: Radioligand binding, cloned α1d-adrenoceptor ([3H]prazosin); details: read-out: Affinity for recombinant α1d-adrenoceptor, cloned receptors (Ki)
# T3 sequence (P25100 1-572): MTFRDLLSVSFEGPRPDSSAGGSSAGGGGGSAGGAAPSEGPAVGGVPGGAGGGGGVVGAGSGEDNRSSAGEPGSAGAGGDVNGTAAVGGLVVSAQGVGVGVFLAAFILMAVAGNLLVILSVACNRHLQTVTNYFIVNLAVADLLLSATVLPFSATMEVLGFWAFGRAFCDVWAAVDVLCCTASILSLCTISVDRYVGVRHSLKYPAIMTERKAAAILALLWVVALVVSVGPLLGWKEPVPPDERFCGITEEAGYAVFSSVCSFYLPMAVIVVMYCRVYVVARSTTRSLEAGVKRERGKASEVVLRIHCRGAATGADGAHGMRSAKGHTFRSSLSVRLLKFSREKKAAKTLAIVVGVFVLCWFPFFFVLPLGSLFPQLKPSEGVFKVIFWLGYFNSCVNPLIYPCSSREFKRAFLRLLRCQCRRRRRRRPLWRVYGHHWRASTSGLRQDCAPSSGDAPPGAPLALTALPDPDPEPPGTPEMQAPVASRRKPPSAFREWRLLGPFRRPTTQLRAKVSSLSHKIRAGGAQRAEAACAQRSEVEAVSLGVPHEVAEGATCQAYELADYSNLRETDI
# Procedure: as §2, §3, §4, §1
# [9] = target: T4, α1a-adrenoceptor (recombinant) (Homo sapiens, UniProt P35348); experiment: Radioligand binding, cloned α1a-adrenoceptor ([3H]prazosin); details: read-out: Affinity for recombinant α1a-adrenoceptor, cloned receptors (Ki)
# T4 construct: expressed in transfected cells
# T4 sequence (P35348 1-466): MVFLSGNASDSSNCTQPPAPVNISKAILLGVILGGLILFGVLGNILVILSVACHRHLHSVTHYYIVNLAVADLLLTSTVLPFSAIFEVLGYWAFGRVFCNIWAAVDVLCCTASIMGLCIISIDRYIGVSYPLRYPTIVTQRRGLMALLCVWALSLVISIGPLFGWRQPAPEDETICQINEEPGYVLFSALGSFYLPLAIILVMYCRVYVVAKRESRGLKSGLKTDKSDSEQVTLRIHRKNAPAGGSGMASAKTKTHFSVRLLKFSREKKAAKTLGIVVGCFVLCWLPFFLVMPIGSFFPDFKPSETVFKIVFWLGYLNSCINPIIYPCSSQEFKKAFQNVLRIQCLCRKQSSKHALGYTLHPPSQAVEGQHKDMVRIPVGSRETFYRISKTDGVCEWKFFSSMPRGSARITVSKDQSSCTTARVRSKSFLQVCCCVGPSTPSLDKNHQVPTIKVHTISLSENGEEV
# Procedure: as §2, §3, §4, §1
Structure (SMILES),Affinity for the 5HT1A-serotoninergic receptor [1],Affinity for the α1-adrenergic receptor (α1-adrenergic receptor),UC ID50: active dose inhibiting by 50% the urethral contractions induced by noradrenaline [2] [mg/kg],DBP ED25: active dose lowering diastolic blood pressure by 25% (diastolic blood pressure [3]) [mg/kg],Ki [4] [nM],Ki [5] [nM],DBP ED25: active dose lowering diastolic blood pressure by 25% (diastolic blood pressure [6]) [mg/kg],UC ID50: active dose inhibiting by 50% the urethral contractions induced by noradrenaline [7] [mg/kg],DBP/UC ratio between the active doses [7],Ki [8] [nM],Ki [9] [nM]
"Cc1c(-c2ccccc2)oc2c(C(=O)OCCN3CCCCC3)cccc2c1=O [Flavoxate, 3-methyl-4-oxo-2-phenyl-8-(2,N-piperidinylethoxycarbonyl)-4H-1-benzopyran]",practically devoid of affinity,practically devoid of affinity,,,,,,,,,
CCOc1ccccc1OCCN[C@H](C)Cc1ccc(OC)c(S(N)(=O)=O)c1 [tamsulosin],comparable affinity,,,,,,,,,,
COc1ccccc1N1CCN(CCCNC(=O)c2cccc3c(=O)c(C)c(-c4ccccc4)oc23)CC1 [Compound A],,,0.0024,0.243,,,,,,,
"COc1ccc(C#N)cc1N1CCN(CCCNC(=O)c2cccc3c(=O)c(C)c(-c4ccccc4)oc23)CC1 [Example 18, 8-{3-[4-(5-Cyano-2-methoxyphenyl)-1-piperazinyl]propylcarbamoyl}-3-methyl-4-oxo-2-phenyl-4H-1-benzopyran]",,,,,677,100,1.2976,0.0341,38.05,45.4,4.18
"Cc1c(-c2ccccc2)oc2c(C(=O)NCCCN3CCN(c4ccccc4OCC(F)(F)F)CC3)cccc2c1=O [Example 15, 8-<3-{4-[2-(2,2,2-Trifluoroethoxy)phenyl]-1-piperazinyl}propylcarbamoyl>-3-methyl-4-oxo-2-phenyl-4H-1-benzopyran]",,,,,0.71,6,3.001,0.0049,,3.38,0.07
"Cc1c(-c2ccccc2)oc2c(C(=O)NCCCN3CCN(c4cc(Cl)ccc4OCC(F)(F)F)CC3)cccc2c1=O [Example 22, 8-<3-{4-[5-Chloro-2-(2,2,2-trifluoroethoxy)phenyl]-1-piperazinyl}-propylcarbamoyl>-3-methyl-4-oxo-2-phenyl-4H-1-benzopyran]",,,,,,1.9,1.266,0.0195,64.92,3.07,0.25

# Source: patent publication US6403594B1, “Benzopyran derivatives” (Recordati, S.A. Chemical and Pharmaceutical Company, priority 1999, dated 2002)
